Measured values reported in patent US20210144999A1, “COMPOSITIONS COMPRISING HYDROXYCINNAMIC ACID AND RELATED CONJUGATES, ANALOGUES AND DERIVATIVES, AND METHODS OF USE THEREOF” (YEDA RESEARCH AND DEVELOPMENT CO. LTD., priority 2017, published 2021).
“Also recorded” adds a separate entry of the source.

Columns and labels:
[1] = tested on: B. subtilis 3610 Δ yclQ mutant biofilms; assay: Biofilm (pellicle) development of B. subtilis strain defective in iron uptake; assay type: cell-based; conditions: Δ yclQ mutant pellicles with or without purified RID
Text: Biofilms grown in the presence and absence of RID in B. subtilis 3610 and its derivate (Δ yclQ) mutant in iron uptake pathways (Zawadzka et al., 2009). Untreated pellicles are shown in the top panel. Pellicles applied with purified RID are shown below.

[2] = tested on: rhyzoctonia solani; assay: Bioprotection of tomato plants by B. subtilis against rhyzoctonia solani; assay type: in vivo; conditions: RID with B. subtilis
Description: ISR assay. Arabidopsis thaliana or Microtome tomato seedlings were grown on NITCH-agar for 10 days. Then each seedling was transferred to separate solid MSgg plate. In order to test the effects of either treated or untreated B. subtilis on the Induced systemic resistance (ISR), bacterial cells were inoculated aside to the root (as mentioned above) and incubated at 23° C. for five days. Alternatively and as indicated in the corresponding figure legend, we inoculated the bacterial cells directly on the root. Then the first leaf was infected by puncturing by needle and inoculating with the necrosis-causing pathogens, Pseudomonas syringae DC3000 or rhyzoctonia solani (Kuhn). Five days after infection with P. syringae, plants were further analyzed.
Tomato infections (FIGS. 18A, 18B and 19).

[3] = tested on: B. subtilis biofilms; assay: B. subtilis biofilm stability / maintenance in vitro; assay type: cell-based; conditions: in vitro and in vivo, specific environmental conditions such as iron starvation
Description: Shown are biofilms of treated and untreated B. subtilis biofilms.
Strains and Media All experiments were performed with B. subtilis NCBI3610 and its derivatives. Assays were carried out with the biofilm-inducing medium, MSgg: 5 mM potassium phosphate, 100 mM MOPS (pH 7), 2 mM MgCl2, 50 μM MnCl2, 1 μM ZnCl2, 2 μM thiamine, 0.5% glycerol, 0.5% glutamate, 50 μg/ml tryptophan, 50 μg/mlphenylalanine 50 μg/ml threonine, 700 μM CaCl2, and 50 μM (for growth assays) or 125 μM (for biofilm assays) FeCl3^1. A solid MSgg medium was obtained by adding Bacto agar (Difco) to a final concentration of 1.5%. When necessary, selective medium was prepared with LB-agar or LB broth, supplemented with: 100 μg/ml ampicillin (amp) (AG Scientific), or 10 μg/ml kanamycin (kan) (AG Scientific), or 10 μg/ml chloramphenicol (cam) (Amresco), or 10 μg/ml tetracycline (tet) (Amresco), or 100 μg/ml spectinomycin (spec) (Tivan Biotech), or 1 μg/mlerythromycin (erm) (Amresco)+25 μg/ml lincomycin (linc) (Sigma Aldrich).

[4] = tested on: P. syringae strain DC3000 pv tomato; assay: Bioprotection of tomato plants by B. subtilis against pseudomonas syringae; assay type: in vivo; conditions: 5 μM RID with 1000 B. subtilis cells; 100 or 10,000 pathogen cells
Description: FIGS. 18A-18B: Purified RID improved the bioprotection versus pseudomonas syringae achieved by Bacillus. Bacillus strain B. subtilis 3610 (B.S) was used. The bacterial strain was maintained on LB plates. 1000 cells either applied or non-applied with 5 μM of RID were added to tomato plants grown on agrophonic beads. Plants were incubated at 28±2° C. for 15 days. P. syringae strain DC3000 pv tomato (P.S) culture was grown in LB at 37° C. to OD600=0.2 to 0.3 (3*10^8 cells per ml) and diluted to 100 cells (FIG. 18A) 10,000 (FIG. 18B) cells retrospectively (w/v) into the plant media. Plants were further incubated at 28±2° C. for 10 days and the growth of the pathogen was measured and compared with the control. Three replications were maintained for each assay. SD represents the average of three independent experiments.
Bacillus strain B. subtilis 3610 (B.S) was maintained on LB plates. 1000 cells of B.S. with or without the addition of 5 μM of RID were added to tomato plants grown on agrophonic beads. Plants were incubated at 28±2° C. for 15 days.
P. syringae strain DC3000 pv tomato (P.S) was grown in LB at 37° C. to OD600=0.2 to 0.3 (3*10^8 cells per ml) and diluted to 10,000 cells retrospectively (w/v) into the plant media. Plants were further incubated at 28±2° C. for 10 days and the growth ofthe pathogen was measured and compared with the control. […]

[5] = tested on: P. syringae; assay: Bioprotection of Arabidopsis thaliana by B. subtilis against pseudomonas syringae; assay type: in vivo; conditions: 5 μM purified RID with 1000 B. subtilis cells, 100 or 10,000 pathogen cells
Description: (§1) FIG. 19: Purified RID improved the bioprotection versus pseudomonas syringae and rhyzoctonia solani achieved by Bacillus. We used Bacillus strain B. subtilis 3610 (B.S). The bacterial strain was maintained on LB plates. 1000 cells either applied or non-applied with 5 μM of purified RID were added to Arabidopsis thaliana plants grown on MS solid media. Plants were incubated at 26±2° C. for 5 days. P. syringae (P.S) or R. solani (R.S) were grown in TSB at 37° C. to OD600=0.2 to 0.3 (3*10^8 cells per ml) and diluted to 100 cells, or 10,000 cells retrospectively (w/v) into the plant media. Plants were further incubated at 28±2° C. for 5 days and the growth of the pathogen was measured and compared with the control. Three replications were maintained for each assay. SD represents the average of three independent experiments.
(§2) Bacillus strain B. subtilis 3610 (B.S) was maintained on LB plates. 1000 cells with or without 5 μM of purified RID were added to Arabidopsis thaliana plants grown on MS solid media. Plants were incubated at 26±2° C. for 5 days. P. syringae (P.S) or R. solani (R.S) were grown in TSB at 37° C. to OD600=0.2 to 0.3 (3*10^8 cells per ml) and diluted to 100 cells, or 10,000 cells retrospectively (w/v) into the plant media. Plants were further incubated at 28±2° C. for 5 days and the growth of the pathogen was measured and compared with the control. […]

[6] = tested on: R. solani; assay: Bioprotection of Arabidopsis thaliana by B. subtilis against rhyzoctonia solani; assay type: in vivo; conditions: 5 μM purified RID with 1000 B. subtilis cells, 100 or 10,000 pathogen cells
Description: as §1, §2

NCCCCNC(=O)/C=C/c1ccc(O)c(O)c1 [RID, caffeoyl putrescine]
biofilm development of iron-uptake defective B. subtilis [1]: compensated for the biofilm defect; also recorded: can promote the development of biofilms | B. subtilis-mediated protection of tomato plants from rhyzoctonia solani [2]: enhanced the protective effects of Bacillus subtilis on tomato plant mortality | disassembly of B. subtilis biofilms [3]: blocks the disassembly of B. subtilis biofilms in vitro and in vivo | B. subtilis-mediated protection of tomato plants from pseudomonas syringae pv. Tomato [4]: enhanced the protective effects of Bacillus subtilis on tomato plant mortality; also recorded: improved significantly the duration of protection achieved by Bacillus subtilis and the resistance to high inoculum of infection | B. subtilis-mediated protection of Arabidopsis (Brassicaceae) from pseudomonas syringae [5]: improved significantly protection achieved by Bacillus subtilis | B. subtilis-mediated protection of Arabidopsis (Brassicaceae) from pseudomonas syringae ([5]; listed as purified RID): significantly improve the protection of Brassicaceae plants | B. subtilis-mediated protection of Arabidopsis (Brassicaceae) from rhyzoctonia solani [6]: improved significantly protection achieved by Bacillus subtilis | B. subtilis-mediated protection of Arabidopsis (Brassicaceae) from rhyzoctonia solani ([6]; listed as purified RID): significantly improve the protection of Brassicaceae plants
